We go through two molecules from patent publication US12054495B2, “Substituted macrocyclic compounds and related methods of treatment” (Alkermes, Inc., priority 2019, dated 2024).

The test system of this series is MDR1. Nature of the series: MDCK-MDR1 permeability assay. Format: in vitro ADME. The conditions noted are these: dog; for Papp A→B at 2 h, 3 μM: MDCK-MDR1, MDCK-MDR1 cells, apical to basolateral, 3 μM test compound, 2 hours at 37 degrees C; for efflux ratio at 2 h, 3 μM: MDCK-MDR1, Papp (basolateral to apical) divided by Papp (apical to basolateral), MDCK-MDR1 cells, read-out: Efflux ratio (ER). An outline of the steps:
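Bidirectional transport across MDCK-MDR1 monolayers with test compound at 3 μM in HBSS, Lucifer Yellow 100 μM co-dosed as integrity marker; 2 h at 37 °C, donor and receiver quantified by LC-MS/MS. Papp = dQ/dt × 1/(A×C0); efflux ratio = Papp(B→A)/Papp(A→B), ER>2 taken as active transport.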

Take `CS(=O)(=O)N[C@@H]1CCCN2C(=O)COc3cccc(F)c3[C@H]3CC[C@H](CC3)OC[C@H]12` (racemic) [Compound 49]: the apical-to-basolateral permeability (Papp A→B) at 2 h, 3 μM was found to be 0.72 ×10⁻⁶ cm/s and the efflux ratio at 2 h, 3 μM was 36.

Take `COC(=O)N1CCC[C@H](NS(C)(=O)=O)[C@@H]1CO[C@H]1CC[C@@H](c2ccccc2)CC1` [methyl (2R,3S)-3-((methylsulfonyl)amino)-2-(((cis-4-phenylcyclohexyl)oxy)methyl)-piperidine-1-carboxylate, reference compound]: the apical-to-basolateral permeability (Papp A→B) at 2 h, 3 μM is 5.9 ×10⁻⁶ cm/s and the efflux ratio at 2 h, 3 μM was 4.

The Papp A→B is the apparent permeability from the apical to the basolateral side of a cell layer. Lower therefore signals poor permeation.
